# Assay results reported in patent publication US20240327359A1, “3-ISOXAZOLIDINONE COMPOUND, PREPARATION METHOD, HERBICIDAL COMPOSITION AND APPLICATION THEREOF” (QINGDAO KINGAGROOT CHEMICAL COMPOUND CO., LTD., priority 2021, published 2024).
# Legend:
# Type in all cases: in vivo
# [1] = system: wheat; assay: Pre-emergence stage, crop damage; settings: 2 weeks
# Source text: (§1) The activity level criteria for plant damage (i.e., growth control rate) are as follows:
# (§2) The above growth control rates are fresh weight control rates.
# (§3) Monocotyledonous and dicotyledonous weed seeds (Descurainia sophia, Capsella bursa-pastoris, Abutilon theophrasti, Galium aparine, Stellaria media, Lithospermum arvense, Rorippa indica, Alopecurus aequalis, Alopecurus japonicus, Eleusine indica, Beckmannia syzigachne, Sclerochloa dura, Phleum paniculatum, Veronica didyma, Bromus japonicus, Aegilops tauschii, Phalaris arundinacea, Amaranthus retroflexus, Chenopodiaceae, Commelina communis, Sonchus arvensis, Convolvulus arvensis, Cirsium setosum, Solanumnigrum, Acalypha australis, Digitaria sanguinalis, Echinochloa crusgalli, Setaria viridis, Setaria glauca, Leptochloa chinensis, Monochoria vaginalis, Sagittaria trifolia, Scirpus juncoides, Cyperus rotundus, Cyperus iria, Cyperus difformis, Fimbristylis, Portulaca oleracea, Xanthium sibiricum, Pharbitis nil, Conyza Canadensis, etc.) and major crop seeds (wheat, corn, rice, soybean, cotton, oilseed rape, millet, sorghum, potato, sesame, ricinus, etc.) were placed in plastic pots filled with soil, then covered with 0.5-2 cm of soil, allowed to grow in a good greenhouse environment. The test plants were treated on the day of sowing. The tested compounds of the present invention were respectively dissolved in acetone, then added with Tween 80, diluted with a certain amount of water to obtain a solution of a certain concentration, and sprayed by a spray tower onto the plants. After the application, the plants were cultured for 2 weeks in the greenhouse, and then the experimental results of the weeding were recorded. The doses of the used compounds were 3, 6, 12, 24, 48 g ai./mu (1 mu=1/15 ha), and the averages were obtained from three replicates.
# [2] = system: peanut; assay: Pre-emergence stage, crop damage; settings: 48 g a.i./mu, 2 weeks
# Source text: as §1, §2, §3
# [3] = system: rice; assay: Pre-emergence stage, crop damage; settings: 2 weeks
# Source text: as §1, §2, §3
# [4] = system: cotton; assay: Pre-emergence stage, crop damage; settings: 2 weeks
# Source text: as §1, §2, §3
# [5] = system: corn; assay: Pre-emergence stage, crop damage; settings: 24 g a.i./mu, 2 weeks
# Source text: as §1, §2, §3
# [6] = system: soy bean; assay: Pre-emergence stage, crop damage; settings: 2 weeks
# Source text: as §1, §2, §3
# [7] = system: weeds; assay: Activity test of the compositions, soil sealing treatment; settings: read-out: Control effect (%) of B applied alone (B)
# Summary of the method: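 Pre-emergence soil spray at 450 kg/ha, 0.3 MPa, applied 72 h after sowing pre-germinated seeds, 20 seeds per pot, 4 pots, 4 repeats; actives in acetone diluted with 0.10% Tween-80. Greenhouse, 20 to 30° C; surviving weed fresh weight measured 21 days after treatment.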
# [8] = system: wheat; assay: Post-emergence stage, crop damage; settings: 720 g a.i./ha, 3 weeks after application
# Source text: as §1, §2
# (§4) Monocotyledonous and dicotyledonous weed seeds (Descurainia sophia, Capsella bursa-pastoris, Abutilon theophrasti, Galium aparine, Stellaria media, Lithospermum arvense, Rorippa indica, Alopecurus aequalis, Alopecurus japonicus, Eleusine indica, Beckmannia syzigachne, Sclerochloa dura, Phleum paniculatum, Veronica didyma, Bromus japonicus, Aegilops tauschii, Phalaris arundinacea, Amaranthus retroflexus, Chenopodiaceae, Commelina communis, Sonchus arvensis, Convolvulus arvensis, Cirsium setosum, Solanumnigrum, Acalypha australis, Digitaria sanguinalis, Echinochloa crusgalli, Setaria viridis, Setaria glauca, Leptochloa chinensis, Monochoria vaginalis, Sagittaria trifolia, Scirpus juncoides, Cyperus rotundus, Cyperus iria, Cyperus difformis, Fimbristylis, Portulaca oleracea, Xanthium sibiricum, Pharbitis nil, Conyza Canadensis, etc.) and major crop seeds (wheat, corn, rice, soybean, cotton, oilseed rape, millet, sorghum, potato, sesame, ricinus, etc.) were placed in plastic pots filled with soil, then covered with 0.5-2 cm of soil, allowed to grow in a good greenhouse environment. Two weeks after sowing, the test plants were treated in the 2-3 leaf stage. The tested compounds of the present invention were respectively dissolved in acetone, then added with Tween 80 and 1.5 liter/ha of emulsifiable concentrate of methyl oleate as synergist, diluted with a certain amount of water to obtain a solution of a certain concentration, and sprayed by a spray tower onto the plants. After the application, the plants were cultured for 3 weeks in the greenhouse, and then the experimental results of the weeding were recorded. The doses of the used compounds were 45, 90, 180, 360, 720 g a.i./ha, and the averages were obtained from three replicates.
# [9] = system: rice; assay: Post-emergence stage, crop damage; settings: 720 g a.i./ha, 3 weeks after application
# Source text: as §1, §2, §4
# [10] = system: Alopecurus japonicus; assay: Weeding effect in post-emergence stage; settings: 720 g a.i./ha, 3 weeks after application
# Source text: as §1, §2, §4
# [11] = system: Digitaria sanguinalis; assay: Weeding effect in post-emergence stage; settings: 720 g a.i./ha, 3 weeks after application
# Source text: as §1, §2, §4
# [12] = system: Leptochloa chinensis; assay: Weeding effect in post-emergence stage; settings: 720 g a.i./ha, 3 weeks after application
# Source text: as §1, §2, §4
# [13] = system: Abutilon theophrasti; assay: Weeding effect in post-emergence stage; settings: 720 g a.i./ha, 3 weeks after application
# Source text: as §1, §2, §4
# [14] = system: Lolium perenne; assay: Weeding effect in pre-emergence stage; settings: 2 weeks
# Source text: as §1, §2, §3
# [15] = system: Veronica didyma; assay: Weeding effect in pre-emergence stage; settings: 2 weeks
# Source text: as §1, §2, §3
# [16] = system: Leptochloa chinensis; assay: Weeding effect in pre-emergence stage; settings: 2 weeks
# Source text: as §1, §2, §3
# [17] = system: Descurainia sophia; assay: Weeding effect in pre-emergence stage; settings: 2 weeks
# Source text: as §1, §2, §3
# [18] = system: Echinochloa crusgalli; assay: Weeding effect in pre-emergence stage; settings: 2 weeks
# Source text: as §1, §2, §3
# [19] = system: Echinochloa crusgalli, Scirpus juncoides, Bidens tripartita L., Sagittaria trifolia; assay: Tests on resistance of the collected weeds to pyrazosulfuron-ethyl; settings: regular doses; weed seeds collected from Heilongjiang Province of China
# Source text: Note: The seeds of Echinochloa crusgalli, Scirpus juncoides and Bidens tripartita L., and Sagittaria trifolia were collected from Heilongjiang Province of China.
structure (smiles),measurement,setting,value
"CC1(C)CON(Cc2ccc(Cl)cc2Cl)C1=O [Control compound A, bixlozone]","plant damage level (growth control rate) on crop, pre-emergence stage",[1]; 6 g a.i./mu,1 (Level 1: growth control rate is greater than 0% and less than 15%)
same,"plant damage level (growth control rate) on crop, pre-emergence stage",[1]; 12 g a.i./mu,1 (Level 1: growth control rate is greater than 0% and less than 15%)
same,"plant damage level (growth control rate) on crop, pre-emergence stage",[1]; 24 g a.i./mu,2 (Level 2: growth control rate is greater than or equal to 15% and less than 30%)
same,"plant damage level (growth control rate) on crop, pre-emergence stage",[2],1 (Level 1: growth control rate is greater than 0% and less than 15%)
same,"plant damage level (growth control rate) on crop, pre-emergence stage",[3]; 6 g a.i./mu,1 (Level 1: growth control rate is greater than 0% and less than 15%)
same,"plant damage level (growth control rate) on crop, pre-emergence stage",[3]; 12 g a.i./mu,2 (Level 2: growth control rate is greater than or equal to 15% and less than 30%)
same,"plant damage level (growth control rate) on crop, pre-emergence stage",[3]; 24 g a.i./mu,4 (Level 4: growth control rate is greater than or equal to 40% and less than 50%)
same,"plant damage level (growth control rate) on crop, pre-emergence stage",[4]; 12 g a.i./mu,1 (Level 1: growth control rate is greater than 0% and less than 15%)
same,"plant damage level (growth control rate) on crop, pre-emergence stage",[4]; 24 g a.i./mu,2 (Level 2: growth control rate is greater than or equal to 15% and less than 30%)
same,"plant damage level (growth control rate) on crop, pre-emergence stage",[5],2 (Level 2: growth control rate is greater than or equal to 15% and less than 30%)
same,"plant damage level (growth control rate) on crop, pre-emergence stage",[6]; 24 g a.i./mu,1 (Level 1: growth control rate is greater than 0% and less than 15%)
same,"plant damage level (growth control rate) on crop, pre-emergence stage",[6]; 48 g a.i./mu,2 (Level 2: growth control rate is greater than or equal to 15% and less than 30%)
same,pest or weed control at 30 g/ha,"[7]; Echinochloa crus-galli, 504 h, Echinochloa crusgalli, soil treatment (S), B at 2 g a.i./mu, 21 days",41.3%
same,pest or weed control at 60 g/ha,"[7]; Echinochloa crus-galli, 504 h, Echinochloa crusgalli, soil treatment (S), B at 4 g a.i./mu, 21 days",50.3%
same,"plant damage level (growth control rate) on crop, post-emergence stage",[8],3 (Level 3: growth control rate is greater than or equal to 40% and less than 60%)
same,"plant damage level (growth control rate) on crop, post-emergence stage",[9],2 (Level 2: growth control rate is greater than or equal to 20% and less than 40%)
same,"weeding effect in post-emergence stage, activity level (growth control rate)",[10],3 (Level 3: growth control rate is greater than or equal to 40% and less than 60%)
same,"weeding effect in post-emergence stage, activity level (growth control rate)",[11],3 (Level 3: growth control rate is greater than or equal to 40% and less than 60%)
same,"weeding effect in post-emergence stage, activity level (growth control rate)",[12],2 (Level 2: growth control rate is greater than or equal to 20% and less than 40%)
same,"weeding effect in post-emergence stage, activity level (growth control rate)",[13],4 (Level 4: growth control rate is greater than or equal to 60% and less than 85%)
same,"weeding effect in pre-emergence stage, activity level (growth control rate)",[14]; 6 g a.i./mu,2 (Level 2: growth control rate is greater than or equal to 15% and less than 30%)
same,"weeding effect in pre-emergence stage, activity level (growth control rate)",[14]; 24 g a.i./mu,9
same,"weeding effect in pre-emergence stage, activity level (growth control rate)",[15]; 6 g a.i./mu,8 (Level 8: growth control rate is greater than or equal to 80% and less than 100%)
same,"weeding effect in pre-emergence stage, activity level (growth control rate)",[15]; 12 g a.i./mu,9
same,"weeding effect in pre-emergence stage, activity level (growth control rate)",[15]; 24 g a.i./mu,9
same,"weeding effect in pre-emergence stage, activity level (growth control rate)",[16]; 3 g a.i./mu,6 (Level 6: growth control rate is greater than or equal to 60% and less than 70%)
same,"weeding effect in pre-emergence stage, activity level (growth control rate)",[16]; 6 g a.i./mu,9
same,"weeding effect in pre-emergence stage, activity level (growth control rate)",[16]; 12 g a.i./mu,9
same,"weeding effect in pre-emergence stage, activity level (growth control rate)",[16]; 24 g a.i./mu,9
same,"weeding effect in pre-emergence stage, activity level (growth control rate)",[17]; 3 g a.i./mu,4 (Level 4: growth control rate is greater than or equal to 40% and less than 50%)
same,"weeding effect in pre-emergence stage, activity level (growth control rate)",[17]; 6 g a.i./mu,4 (Level 4: growth control rate is greater than or equal to 40% and less than 50%)
same,"weeding effect in pre-emergence stage, activity level (growth control rate)",[17]; 12 g a.i./mu,9
same,"weeding effect in pre-emergence stage, activity level (growth control rate)",[17]; 24 g a.i./mu,9
same,"weeding effect in pre-emergence stage, activity level (growth control rate)",[18]; 3 g a.i./mu,7 (Level 7: growth control rate is greater than or equal to 70% and less than 80%)
same,"weeding effect in pre-emergence stage, activity level (growth control rate)",[18]; 6 g a.i./mu,9
same,"weeding effect in pre-emergence stage, activity level (growth control rate)",[18]; 12 g a.i./mu,9
same,"weeding effect in pre-emergence stage, activity level (growth control rate)",[18]; 24 g a.i./mu,9
"CCOC(=O)c1cnn(C)c1S(=O)(=O)NC(=O)Nc1nc(OC)cc(OC)n1 [pyrazosulfuron-ethyl, reference compound]",pest or weed control at 3.75 g/ha,"[7]; Cyperus difformis, soil (S), B 0.25 g a.i./mu",44.8%
same,pest or weed control at 7.5 g/ha,"[7]; Cyperus difformis, soil (S), B 0.5 g a.i./mu",59.7%
same,response of the collected weeds to pyrazosulfuron-ethyl,[19],resistant
